Details: for log10 BCF / log10 biotransformation half-life (days): fish

| SMILES | boiling point [°C] | melting point [°C] | other results |
| --- | --- | --- | --- |
| O=C(C(Cl)Cl)C(Cl)Cl | 183 |  |  |
| CCCCOC | 70.1 | -116 | log10 vapour pressure (mmHg): 2.14 |
| CCC(=O)c1c(O)cc(O)cc1O |  | 176 |  |
| O=C1OC2(c3ccccc31)c1cc(Br)c(O)c(Br)c1Oc1c2cc(Br)c(O)c1Br |  | 295 |  |
| FC(Cl)Br (stereo not given) | 36 | -115 |  |
| CC(C)NCC(O)c1ccc(NS(C)(=O)=O)cc1 (stereo not given) |  | 207 |  |
| c1ccc2c(N=Nc3cccc4ccccc34)cccc2c1 |  | 190 |  |
| c1ccc2sccc2c1 | 221 | 32 | log10 Koc (L/kg): 3.48; log10 biodegradation half-life (days): 1.4; log10 vapour pressure (mmHg): -0.624 |
| C=C(C)[C@H]1Cc2c(ccc3c2O[C@@H]2COc4cc(OC)c(OC)cc4[C@@H]2C3=O)O1 |  | 176 | log10 Koc (L/kg): 4; log10 BCF: 1.41; log10 biotransformation half-life (days): -0.59 |
| CCOC(=O)[C@@H](C)Br | 160 |  |  |
| CC(Cl)(Cl)Cl | 74 | -30.4 | log10 Henry constant (atm·m³/mol): -1.76; log10 Koa: 2.7; log10 Koc (L/kg): 1.95; log10 vapour pressure (mmHg): 2.09; ready biodegradability: not readily biodegradable; log10 BCF: 0.7; log10 biotransformation half-life (days): -1.39 |
| NCCc1ccc(O)cc1 |  | 164 |  |
| CCCCC(CC)CO (stereo not given) |  | -70 | log10 vapour pressure (mmHg): -0.867; ready biodegradability: readily biodegradable |
| c1ccc(C(c2ccccc2)(c2ccccc2)N2CCOCC2)cc1 |  | 175 |  |
| CC(=O)CC(C)(C)O | 168 | -44 | log10 vapour pressure (mmHg): 0.233; ready biodegradability: readily biodegradable |
| Cl[Si](Cl)(Cl)CCc1ccccc1 | 242 |  |  |
| CCOC(=O)C(Cl)(Cl)Cl | 168 |  | log10 vapour pressure (mmHg): 0.581 |
| BrC1Cc2ccccc2C1Br (stereo not given) |  | 32 |  |
| CCCCCCCCCc1cccc(O)c1CCCCCCCCC |  |  | ready biodegradability: not readily biodegradable |
| CCc1ccc2ccccc2c1 | 258 |  | log10 Henry constant (atm·m³/mol): -3.27; log10 Koc (L/kg): 3.76; log10 vapour pressure (mmHg): -1.5 |
| Cc1cccc(OP(=O)(Oc2cccc(C)c2)Oc2cccc(C)c2)c1 |  | 25.5 | log10 Henry constant (atm·m³/mol): -4.08; ready biodegradability: readily biodegradable |
| O=c1[nH]cc(N(CCCl)CCCl)c(=O)[nH]1 |  |  | log10 Koc (L/kg): 1.46 |

| SMILES | boiling point [°C] | melting point [°C] | other results |
| --- | --- | --- | --- |
| CC#CC(=O)O | 203 | 78 |  |
| CCCN(CCC)c1c([N+](=O)[O-])cc(C(C)C)cc1[N+](=O)[O-] |  |  | log10 Koc (L/kg): 4; log10 vapour pressure (mmHg): -4.52 |
| O=C(Cl)C(F)(F)C(F)(F)C(F)(F)F | 38.5 |  |  |
| CSCCl | 105 |  |  |
| FC(F)(F)C(Cl)Cl | 27 | -107 | log10 Henry constant (atm·m³/mol): -1.59; log10 vapour pressure (mmHg): 2.86; ready biodegradability: not readily biodegradable |
| Cc1cccc2ncccc12 | 263 | 19 |  |
| O=C1CCCCN1 | 256 | 39.5 | log10 vapour pressure (mmHg): -2.36 |
| O=S=Nc1ccccc1 | 200 |  |  |
| CCCC1COC(Cn2cncn2)(c2ccc(Cl)cc2Cl)O1 (stereo not given) |  |  | log10 Koc (L/kg): 3.39; log10 vapour pressure (mmHg): -6.38; log10 biotransformation half-life (days): 0.7 |
| CCOC(=O)c1ccccc1C(=O)c1ccccc1 |  | 59.5 |  |
| Cc1c(NC(C)C)c(=O)n(-c2ccccc2)n1C |  | 80 |  |
| O=C1OC(=O)C2CC=CCC12 (stereo not given) |  |  | ready biodegradability: not readily biodegradable |
| Brc1cc(Br)c(Oc2c(Br)c(Br)c(Br)c(Br)c2Br)cc1Br |  |  | log10 BCF: 5.93 |
| CC12CCC(C(Cl)C1=O)C2(C)C (stereo not given) |  | 106 |  |
| CC(=O)c1ccc(C)cc1O | 245 | 21 |  |
| N=C(Nc1ccccc1)Nc1ccccc1 |  | 150 | ready biodegradability: not readily biodegradable; log10 BCF: 1.3 |
| O=C(O)C(F)(F)C(F)F | 134 |  |  |
| CC(=O)C(=O)CC(C)C | 138 |  |  |
| CCOc1cc(OP(=S)(OC)OC)nc(CC)n1 |  | -3.35 | log10 vapour pressure (mmHg): -4.1 |
| Clc1c(Br)c(Br)c2c(c1Br)Oc1c(Br)c(Br)c(Cl)c(Br)c1O2 |  | 385 | log10 vapour pressure (mmHg): -12.5 |
| CCNC(=O)COC(=O)c1ccccc1 |  | 106 |  |
| C=CC(=O)Oc1c(Br)cc(Cl)c2cccnc12 |  | 100 |  |

| SMILES | boiling point [°C] | melting point [°C] | other results |
| --- | --- | --- | --- |
| CCCCCCCCCCC(C)C(=O)O (stereo not given) |  | 22 |  |
| CCCCC(CCCC)c1ccncc1 |  |  | ready biodegradability: readily biodegradable |
| CC(C)CC(=O)c1ccccc1 | 236 |  |  |
| Cc1cccc(NC=O)c1 | 290 |  |  |
| CN(C)c1ccc(N=NS(=O)(=O)O)cc1 |  |  | log10 Koc (L/kg): 1.18 |
| CCCc1ccc(O)cc1O |  | 82.5 |  |
| C=C[C@@](C)(O)CC/C=C(/C)CCC=C(C)C | 276 |  |  |
| ClC1=C(Cl)C(Cl)(C2(Cl)C(Cl)=C(Cl)C(Cl)=C2Cl)C(Cl)=C1Cl |  | 122 | log10 Koc (L/kg): 4.52; log10 vapour pressure (mmHg): -5.66 |
| Cc1cc(C)c(Br)cc1C | 234 | 73 |  |
| FC(F)(F)C(F)(F)C(F)(F)F | -36.6 | -148 | log10 vapour pressure (mmHg): 3.82 |
| Cc1cccc(C(=O)O)c1 |  | 109 | log10 vapour pressure (mmHg): -3.63; ready biodegradability: readily biodegradable |
| C=CC1CC=CCC1 (stereo not given) | 128 | -109 | log10 vapour pressure (mmHg): 1.2; ready biodegradability: not readily biodegradable; log10 BCF: 2.22; log10 biotransformation half-life (days): -0.41 |
| O=NN(CCCl)C(=O)NCCCl |  | 31 |  |
| C=C(F)F | -85.7 | -144 | log10 vapour pressure (mmHg): 4.48 |
| Cc1ccc(P(c2ccc(C)cc2)c2ccc(C)cc2)cc1 |  | 149 |  |
| CC[C@]1(O)CC[C@H]2[C@@H]3CCC4=CCCC[C@@H]4[C@H]3CC[C@@]21C |  | 77 |  |
| N#Cc1nn(-c2c(Cl)cc(C(F)(F)F)cc2Cl)c(N)c1S(=O)C(F)(F)F (stereo not given) |  | 200 | log10 vapour pressure (mmHg): -8.56; log10 biotransformation half-life (days): -0.21 |
| CCO[Si](CC)(OCC)OCC | 158 |  |  |
| COc1cc(C)nc(-n2nc(C)cc2OC)n1 |  | 91 |  |
| CCOc1ccccc1Cl | 210 |  |  |
| FC(F)(F)c1ccc(Cl)cc1Cl | 178 | -26 | log10 vapour pressure (mmHg): 0.0449; log10 BCF: 3.37; log10 biotransformation half-life (days): 1.81 |
| Oc1ccc(Cl)cc1O |  | 90.5 | ready biodegradability: not readily biodegradable |

| SMILES | boiling point [°C] | melting point [°C] | other results |
| --- | --- | --- | --- |
| CCOC(=O)C1CCCCC1 | 196 |  |  |
| CN1[C@H]2CC[C@@H]1[C@@H](C(=O)O)[C@H](O)C2 |  | 205 |  |
| C[C@@H](N)C(C)(C)C | 102 | -20 |  |
| NNc1c(Cl)cc(Cl)cc1Cl |  |  | ready biodegradability: not readily biodegradable |
| COc1ccc(C(=O)O)cc1OC |  | 181 | log10 vapour pressure (mmHg): -3.61 |
| CCCCCCCCC(=O)OCC | 227 | -36.7 |  |
| O=C(O)C1=CC(=C(c2ccc(O)c(C(=O)O)c2)c2ccc(O)c(C(=O)O)c2)C=CC1=O |  | 300 |  |
| CCCC(C)(C)C(C)C | 138 | -117 | log10 vapour pressure (mmHg): 0.993 |
| O=C1c2ccccc2Cc2ccccc21 |  | 155 |  |
| NC(=O)NC1NC(=O)NC1=O (stereo not given) |  | 238 |  |
| NS(=O)(=O)c1ccc(CCCCCO)cc1 |  | 86 |  |
| C=CCCCCCCCCC=C | 208 |  |  |
| CCC1(c2ccc(N)cc2)CCC(=O)NC1=O (stereo not given) |  | 150 |  |
| OCC(Cl)(Cl)Cl | 152 | 19 |  |
| NC(=O)c1cccc(N)c1 |  | 116 |  |
| OCCc1ccccn1 |  | -7.8 | log10 Koc (L/kg): 1.45 |
| Cc1cc(-n2nc3ccc(Cl)cc3n2)c(O)c(C(C)(C)C)c1 |  |  | ready biodegradability: not readily biodegradable |
| C1C2C3C2C2C1C32 (stereo not given) | 112 |  |  |
| C=CC#CC | 59.5 |  |  |
| COC(N)=O | 177 | 54 |  |
